We go through one compound from PMC4841536, “Characterization of the Anti-HCV Activities of the New Cyclophilin Inhibitor STG-175” (PLoS ONE, 2016).

The subject of assay [1] is HCV GT2a genomic replicon Luc-Neo-JFH-1. Nature of the assay: Luciferase reporter replicon antiviral assay, GT2a. Type of assay: cell-based. To be noted: Hepatitis C virus. How it is done: The anti-HCV activity of STG-175 was conducted using a panel of luciferase reporter replicon cell lines including GT1a, GT1b, GT2a, GT3a and GT4a as we described previously. The GT1a subgenomic renilla luciferase reporter replicon H77 RLucP (7) was supplied by Dr. Delaney. The GT1b subgenomic firefly luciferase reporter replicon pFK-I389/NS3-3’ [29] was supplied by Dr. Bartenschlager. The GT1B subgenomic NS3, NS5A and NS5B mutants were created via homologous recombination using the In-Fusion HD Cloning kit (Clontech) as we described previously. The GT2a genomic luciferase reporter replicon Luc-Neo-JFH-1 was generated as previously. The plasmid pFK-Luc-JFH1 was supplied from Drs. […] The CellTiter-Fluor™ Cell Viability Assay is a non-lytic fluorescence assay, which measures the number of live cells. […] Luciferase activity was determined using the Luciferase Assay System (Promega) in a Berthold luminometer. […] Viable cells continuously convert resazurin to resorufin, increasing the overall fluorescence and color of the media surrounding cells.
Fig 2 Anti-HCV activities of STG-175 among GTs. […] Luciferase activity was determined using the Luciferase Assay System in a Berthold luminometer. […] Data are expressed as mean of relative light units and calculated EC50s are presented. […]

For assay [2], the system named is HCV (JFH-1) in Huh7.5.1 cells. The assay is described as follows: Mono-infection, HCV core ELISA. Type of assay: cell-based, hepatitis C virus. To be noted: both 0.5 and 5 μM, added together with virus, 12 days. The source says:
For mono-infections: a) human hepatoma Huh7.5.1 cells were infected with HCV (JFH-1) and viral replication was quantified by HCV core ELISA (Ortho HCV antigen ELISA kit; Ortho Clinical Diagnostics, Waco Chemicals, Inc. or HCV Core ELISA, XpressBio); b) sodium-taurocholate co-transporting polypeptide (NTCP)-positive Huh7 cells were infected with hepatitis B virus (HBV) AD38 (produced from HepAD38 cells) and viral replication was quantified by HBV HBeAg ELISA; and c) human (peripheral blood monocytic cells (PBMCs) were infected with HIV-1 (JR-CSF) and viral replication was quantified by HIV-1 capsid/p24 ELISA. PBMCs were isolated as described previously. The Scripps Research Institute Normal Blood Donor Service (TSRI NBDS) provides TSRI investigators who have Human Subjects Committee-approved protocols with a source of normal blood for their research. Donors are assured of a controlled clinical setting for their blood to be drawn by licensed phlebotomists, and investigators are assured that the donors whose specimens they obtain through the service have been screened upon entry into the program and annually thereafter for a CBC, Hepatitis B and C and HIV-1. Hemoglobin determinations at every donation protect the donor from phlebotomy-induced anemia. […]

Where two headings read alike, the source gives them in different places.

Turning to `CC=CCC(C)C(O)C1C(=O)NC(CC)C(=O)N(C)C(CSCCCCO)C(=O)N(C)C(CC(C)(C)O)C(=O)NC(C(C)C)C(=O)N(C)C(CC(C)C)C(=O)NC(C)C(=O)NC(C)C(=O)N(C)C(CC(C)C)C(=O)N(C)C(CC(C)C)C(=O)N(C)C(C(C)C)C(=O)N1C` (stereo not drawn) [STG-175], the 50% effective concentration (EC50) in assay [1] (72 h post-drug addition, luciferase, read-out: EC50 GT2a) is 11.5 nM; in assay [1] (Fig 2D table, unit inferred, read-out: EC50 GT2a (Fig 2D)), 11.5 nM. Also, in assay [2], the “HCV infection (HCV core ELISA)” value is listed as “totally blocked”.
